Results as given in article PMC11091117, “A fluorescently-tagged tick kinin neuropeptide triggers peristalsis and labels tick midgut muscles” (Scientific Reports, 2024).
“Also recorded” adds a separate entry of the source. Where no end group is shown, it is not given here.

Experiments:
[1] = tested on: vector-only (V/O) CHO-K1 cells; test: Cellular end-point fluorescence calcium mobilization assay, vector-only control cells; assay type: cell-based; details: 10 µM peptide, Fluo-8, 29 °C, 60 s, 4 technical replicates
Text: Three peptides were used in this study. These included: 1) the ligand for the endogenous tick kinin receptor from Rhipicephalus sanguineus, Rhisa-kinin 8 peptide of sequence GTGEDQAFSPWGamide (Rhisa-K-8; RK8; of identical sequence to Rhimi-K-8 in Rhipicephalus microplus)[48], 2) the same peptide but fluorescently labeled at the N-terminus with tetramethylrhodamine (TMR) a red fluorescent dye, designated TMR-Rhisa-K-8 (TMR-RK8), and 3) a labeled peptide synthesized with the scrambled sequence of the kinin ligand, designated TMR-Scrambled. The sequence of TMR-RK8 was TMR-C-GTGEDQAFSPWGamide). The TMR-Scrambled kinin (TMR-C-GTQWGPGFEADSamide) served as a negative control for tissue labeling. […]
(§1) A fluorescence-based intracellular calcium mobilization end-point assay described by Xiong, et al.[50] was used to confirm the activity of the TMR-labeled RK8 peptide on a cell line expressing the tick kinin receptor. […] The calcium fluorescence signal was detected by a CLARIOstar (BMG LABTECH, Chicago, IL, United States) plate reader set to read at the fluorescence plate-mode with excitation and emission wavelengths of 490 and 525 nm at 29 °C. Calcium responses were read immediately after the addition of 10 µL of either TMR-RK8, unlabeled RK8, or blank solvent (1% DMSO in HBSS). […]

[2] = tested on: tick kinin receptor (recombinant R. microplus receptor, CHO-K1 BMLK3 cells); test: Cellular end-point fluorescence calcium mobilization assay, BMLK3 cells; assay type: cell-based, Rhipicephalus microplus
Text: Three peptides were used in this study. These included: 1) the ligand for the endogenous tick kinin receptor from Rhipicephalus sanguineus, Rhisa-kinin 8 peptide of sequence GTGEDQAFSPWGamide (Rhisa-K-8; RK8; of identical sequence to Rhimi-K-8 in Rhipicephalus microplus)[48], 2) the same peptide but fluorescently labeled at the N-terminus with tetramethylrhodamine (TMR) a red fluorescent dye, designated TMR-Rhisa-K-8 (TMR-RK8), and 3) a labeled peptide synthesized with the scrambled sequence of the kinin ligand, designated TMR-Scrambled. The sequence of TMR-RK8 was TMR-C-GTGEDQAFSPWGamide). The TMR-Scrambled kinin (TMR-C-GTQWGPGFEADSamide) served as a negative control for tissue labeling. All peptides were custom-synthesized and purchased from GenScript (Piscataway, NJ, USA) with a purity of ≥ 95% and the cysteine in bold in both sequences was added to attach the label. Experiments were replicated with independently synthesized batches (4 mg each) of labeled and unlabeled peptides, for reproducibility. Unlabeled RK8 was used as a competitive ligand to verify target-specific binding of the labeled TMR-RK8 (see Ligand Competition Assay). For cell assays, the peptide stock solutions (100 µM) were made in 1% dimethyl sulfoxide (DMSO) in Hank’s balanced salt solution (HBSS, Thermo Fisher, Waltham, USA). For fluorescent cell labeling, peptide working solutions (10 µM) were prepared in HBSS from stock solutions. For assays on the midgut, peptides were solubilized and diluted in a tick physiological saline consisting of 140 mM NaCl, 5 mM KCl, 1 mM MgCl2, 5 mM CaCl2, 4 mM NaHCO3, and 5 mM HEPES, pH 7.2[49].
The tick kinin receptor is stably expressed in the recombinant CHO-K1 cell line designated BMLK3 (Boophilus microplus leucokinin receptor 3) that was constructed and selected as described by Holmes, et al.[47]. The CHO-K1 cells had been obtained from the American Type Culture Collection (ATCC) for transfection with the expression construct. This cell line has been kept in the laboratory since 2003. Cells that were transfected only with an empty plasmid are referred to as “vector-only” (V/O) cells and were used as a negative control. Before all experiments, the BMLK3 cell line or V/O cells were separately cultured in T-75 flasks with selective medium (F-12 K medium containing 10% FBS and 800 μgmL^−1 of G418 sulfate) for one to two passages in a humidified incubator at 37 °C and 5% CO2.
as §1, with “receptor. For this, BMLK3 and V/O cells were cultured in F-12 K medium (1% FBS and 400 μgmL^−1- of G418 Sulfate). The cells were seeded in a 96-well plate with 20,000 cells per well and incubated overnight at 37 °C and 5% CO2. The next morning, cells were prepared for the assay following the manufacturer’s instructions for the Fluo-8 Calcium Flux Assay Kit – NoWash (Abcam, Cambridge, United Kingdom). The F-12 K medium in the plate was removed by inverting the plate and gently blotting on paper towels.” for “receptor.”

[3] = tested on: R. microplus recombinant receptor; design: method as in PMID 31794138; details: cited from earlier work
[4] = tested on: tick kinin receptors on midgut muscles; test: Ligand competition assay on midgut; assay type: binding, Rhipicephalus sanguineus; details: TMR-RK8 10 µM 1 min, then unlabeled RK8 100 µM 1 min, tick saline, confocal 20x
Text: Individual female ticks were immobilized on a Petri dish filled with wax by submerging their legs in melted wax heated with a soldering pencil (Electronic Control Soldering Station EC 1000, Weller, Apex, North Carolina, USA). Females were dissected under physiological saline following the protocol described by Tidwell et al.[51]. The tick was cut along the edge of the scutum/alloscutum using a stainless steel #12 scalpel blade (Integra Miltex, York, PA, USA), after which the scutum was removed with a pair of fine forceps. To expose the midgut for removal, the tracheae, Malpighian tubules, ovaries, rectal sac, and synganglion were removed with fine forceps in that order. The midgut was then carefully removed and placed into 200 µL of fresh tick saline (See Reagents and Peptides) on a single gasketed incubation chamber (500 µL, Size 22 × 40 mm, Electron Microscopy Sciences, Hatfield, PA). […]
Fluorescently-labeled midgut tissues were imaged using a Leica SP8 inverted confocal microscope. For fluorescence excitation, the 405 nm fixed-wavelength laser was used for DAPI and a white light laser selective for wavelengths between 470 and 670 nm was used for tetramethylrhodamine and phalloidin. […] Images were analyzed and computer-colored using Fiji/ImageJ (National Institutes of Health, Bethesda, MD). […]

In the case of “GTGEDQAFSPWG-NH2 [RK8, endogenous ligand of the tick kinin receptor from Rhipicephalus sanguineus, identical to Rhimi-K-8 of R. microplus]”, the “calcium fluorescence response of vector-only cells (in words)” value [1] is reported as “invariable background fluorescence”, the “intracellular calcium fluorescence response / receptor activation (in words)” value ([2]; 10 nM to 10 μM (four concentrations), 1% DMSO in HBSS, Fluo-8, Ex 490/Em 525 nm, 29 °C, read 60 s at 1 s intervals, average raw fluorescence units of 4 technical replicates, simple linear regression) is reported as “elicited a dose-dependent intracellular calcium fluorescence response” and the “fluorescence units at highest concentration, TMR-RK8 compared with RK8 (in words)” value ([2]; highest concentration assayed 10 µM, Fluo-8, 4 technical replicates) is reported as “maximal and similar for the highest concentration assayed of 10 µM”. The “activity on the R. microplus recombinant receptor (in words)” value [3] was “highly active at the nanomolar level”, the “displacement of TMR-RK8 muscle labeling by unlabeled RK8 (in words)” value [4] was “substantial reduction in the fluorescent signal observed on muscles; also recorded: greatly reduced the fluorescent signal of muscles; also recorded: competitive inhibition of fluorescent signal on muscle tissue” and the “displacement of TMR-RK8 muscle labeling by unlabeled RK8 (in words)” value ([4]; listed as kinin 8) was “competed TMR-RK8, decreasing confocal microscopy signal intensity”.
